According to patent publication US20110098296A1, “Thiazole And Oxazole Kinase Inhibitors” (priority 2007, published 2011):
Where a name gives a salt, the structure may show the parent alone.

Legend:
SK-MEL-28 tumor cells = test: Method C: Cell Growth Inhibition Assay (CellTiter-Glo), SK-MEL-28; format: cell-based; conditions: Homo sapiens, SK-MEL-28, 72 h, 3 days, 4-parameter fit
Outline: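 Growth inhibition is expressed as the concentration giving 50% inhibition relative to vehicle controls, derived from a 4-parameter fit. Tumor cells plated at 500 per well were exposed for 3 days to compound (0.2% DMSO) before total ATP was quantified by CellTiter-Glo.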

SK-MEL-3 tumor cells = test: Method C: Cell Growth Inhibition Assay (CellTiter-Glo), SK-MEL-3; format: cell-based; conditions: Homo sapiens, SK-MEL3, 72 h, 3 days, 4-parameter fit
Protocol: (§1) Human breast tumor cells (BT474) were cultured in RPMI (Mediatech 50-011-PB), containing 10% FBS (JRH Biosciences 12176) and 1% penicillin-streptomycin (Invitrogen 15140). Human head and neck tumor cells (HN5) were cultured in high glucose DMEM (Mediatech 50-013-PB) containing 10% FBS and 1% penicillin-streptomycin. Human colon tumor cells (Colo205) were cultured in RPMI (Mediatech 50-020-PB) containing 10% FBS and 1% penicillin-streptomycin. Human melanoma cancer cells (SK-MEL-28) were cultured in EMEM with nonessential amino acids (Mediatech 50-011-PB) containing 10% FBS, 1% sodium pyruvate (JT Baker 3354-04), and 1% penicillin-streptomycin. Human melanoma cancer cells (A375P F11s) were cultured in RPMI (Mediatech 50-020-PB) containing 10% FBS, 1% sodium pyruvate, and 1% penicillin-streptomycin. Human colon cancer cells (HT-29) were cultured in high glucose DMEM (Mediatech 50-013-PB) containing 10% FBS and 1% penicillin-streptomycin. Human melanoma cancer cells (SK-MEL-3) were cultured in McCoy's 5A (50-025-PB) containing 15% FBS, and 1% penicillin-streptomycin. All cell lines were maintained at 37° C. in a humidified 5% CO2, 95% air incubator. Cells were harvested using trypsin/EDTA (Invitrogen 25200), counted using an haemocytometer, and plated. For 96-well assays (using white full-area NUNC plates cat. #136102), cells were plated in 105 μL at the following densities (cells/well): HN5, 500; Colo205, 500; SK-MEL-28, 500; A375P-F11s, 500; HT-29, 500; SK-MEL-3, 500; and BT474, 3000. For 384-well assays (white full-area NUNC plates, cat. #781080), cells were plated in 48 μL at the following densities (cells/well): HN5, 500; Colo205, 500; SK-MEL-28, 500; A375P-F11s, 500; HT29, 500; SK-MEL-3, 500; and BT474, 2000.
(§2) The next day, compounds were diluted as follow: For 96-well assays, 13.5 μL of compound in DMSO were diluted using nine (9) serial 1:3 dilutions of 4.5 μL in 9 μL of DMSO. Medium (270 μl/well of RPMI with 10% FBS and 1% penicillin-streptomycin) was added to the plates. Aliquots (7 μl) were added to cells in the final assay giving a final DMSO concentration of 0.2%. For 384-well assays, 15 μL of compound in DMSO were diluted using nine (9) serial 1:3 dilutions of 5 μL in 10 μL of DMSO, followed by a further dilution of 5 μL of compound with 95 μL of medium, of which 2 μL were added to cells in the final assay giving a final DMSO concentration of 0.2%. Cells were incubated at 37° C., 5% CO2 for 3 days.
(§3) Total ATP was measured (as a surrogate estimate of cell number) using CellTiter-Glo® reagent (Promega G7571). Briefly, plates were removed from the incubator and allowed to equilibrate to room temperature for 30 minutes. CellTiter-Glo® (25 μL or 55 μL for 384-well or 96-well assays, respectively) reagent was added to each well and plates were shaken on an orbital plate shaker for 2 mins. Plates were incubated without shaking for a further 30 mins and read on an LJL Analyst GT reader in luminometer mode with an integration time of 0.5 seconds per well. Percent inhibition of cell growth was calculated relative to DMSO vehicle-treated control wells. Concentration of compound required to give 50% inhibition of vehicle-treated control cell growth (IC50) was interpolated using a 4-parameter fit for determining IC50 using the following equation: Y=A+((B−A)/(1+((C/X)̂D))) where X=IC50.

Colo205 tumor cells = test: Method C: Cell Growth Inhibition Assay (CellTiter-Glo), Colo205; format: cell-based; conditions: Homo sapiens, COLO 205, 72 h, 3 days, 4-parameter fit
Outline: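 Cells were seeded at 500 per well and dosed the next day with nine serial 1:3 compound dilutions (0.2% DMSO final), then grown 3 days at 37° C, 5% CO2. ATP was measured by CellTiter-Glo luminescence, and IC50 was interpolated by 4-parameter fit of percent inhibition versus DMSO controls.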

EGFR = target: T1, EGFR (Homo sapiens, UniProt P00533); test: EGFR substrate phosphorylation assay (HTRF); format: biochemical; conditions: Method (A): Enzyme Mix incubated with compound at 20° C. for 1 hr, reaction started by adding Substrate Mix
T1 construct: made in house; host or cells: baculovirus expression system
Outline: (§4)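 Baculovirus-expressed kinase (0.8 nM EGFR or 10 nM ErbB2 in enzyme mix) with Peptide C 0.8 μM and ATP 20 μM (substrate-mix levels), MOPS pH 7.5, MnCl2; 90 min, 20 °C, HTRF anti-phosphotyrosine. Method A adds 1 h enzyme–compound preincubation; B none. pIC50, final compound 0.00027–47.6 μM.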

A375P F11s tumor cells = test: Method C: Cell Growth Inhibition Assay (CellTiter-Glo), A375P F11s; format: cell-based; conditions: Homo sapiens, 72 h, 3 days, 4-parameter fit
Protocol: as §1, §2, §3

BT474 tumor cells = test: Method C: Cell Growth Inhibition Assay (CellTiter-Glo), BT474; format: cell-based; conditions: Homo sapiens, BT-474, 72 h, 3 days, 4-parameter fit
HT-29 tumor cells = test: Method C: Cell Growth Inhibition Assay (CellTiter-Glo), HT-29; format: cell-based; conditions: Homo sapiens, HT-29, 72 h, 3 days, 4-parameter fit
Protocol: as §1, §2, §3

ErbB2 = target: T2, ErbB2 (Homo sapiens, UniProt P04626); test: ErbB-2 substrate phosphorylation assay (HTRF); format: biochemical; conditions: Method (A): Enzyme Mix incubated with compound at 20° C. for 1 hr, reaction started by adding Substrate Mix
T2 construct: made in house; host or cells: baculovirus expression system
Outline: as §4

HN5 tumor cells = test: Method C: Cell Growth Inhibition Assay (CellTiter-Glo), HN5; format: cell-based; conditions: Homo sapiens, 72 h, 3 days, 4-parameter fit
Protocol: as §1, §2, §3

T2 sequence (P04626 23-1255): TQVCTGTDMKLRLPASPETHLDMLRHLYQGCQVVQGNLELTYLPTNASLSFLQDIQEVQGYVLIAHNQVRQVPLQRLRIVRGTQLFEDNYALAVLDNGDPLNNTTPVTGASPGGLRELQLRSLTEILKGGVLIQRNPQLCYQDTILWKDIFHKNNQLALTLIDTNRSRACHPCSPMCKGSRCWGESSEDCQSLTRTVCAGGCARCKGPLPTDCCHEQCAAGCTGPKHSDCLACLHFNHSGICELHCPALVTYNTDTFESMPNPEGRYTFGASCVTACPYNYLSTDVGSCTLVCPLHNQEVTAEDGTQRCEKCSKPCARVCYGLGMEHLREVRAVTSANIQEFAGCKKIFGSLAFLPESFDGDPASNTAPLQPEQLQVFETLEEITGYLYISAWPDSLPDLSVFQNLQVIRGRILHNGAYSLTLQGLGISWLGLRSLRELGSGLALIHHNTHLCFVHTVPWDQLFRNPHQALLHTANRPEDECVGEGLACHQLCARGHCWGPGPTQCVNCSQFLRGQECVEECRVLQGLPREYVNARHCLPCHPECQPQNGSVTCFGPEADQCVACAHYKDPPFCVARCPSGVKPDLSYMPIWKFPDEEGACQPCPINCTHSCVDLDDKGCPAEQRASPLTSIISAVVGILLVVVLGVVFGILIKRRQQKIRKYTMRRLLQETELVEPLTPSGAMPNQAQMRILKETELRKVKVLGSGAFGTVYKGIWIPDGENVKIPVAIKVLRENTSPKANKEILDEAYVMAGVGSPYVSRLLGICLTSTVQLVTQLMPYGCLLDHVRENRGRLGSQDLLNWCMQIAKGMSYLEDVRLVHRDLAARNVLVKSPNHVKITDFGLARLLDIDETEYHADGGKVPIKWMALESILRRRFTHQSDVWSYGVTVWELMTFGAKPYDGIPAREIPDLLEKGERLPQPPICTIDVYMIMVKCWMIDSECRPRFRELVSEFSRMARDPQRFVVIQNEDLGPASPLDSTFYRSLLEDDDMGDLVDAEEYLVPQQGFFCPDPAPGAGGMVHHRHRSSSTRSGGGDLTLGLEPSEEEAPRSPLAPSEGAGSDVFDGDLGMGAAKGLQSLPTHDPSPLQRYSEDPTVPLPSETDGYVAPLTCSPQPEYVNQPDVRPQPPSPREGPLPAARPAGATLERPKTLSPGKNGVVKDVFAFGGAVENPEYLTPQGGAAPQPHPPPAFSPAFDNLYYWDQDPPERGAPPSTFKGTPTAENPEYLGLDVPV
T1 sequence (P00533 25-1210): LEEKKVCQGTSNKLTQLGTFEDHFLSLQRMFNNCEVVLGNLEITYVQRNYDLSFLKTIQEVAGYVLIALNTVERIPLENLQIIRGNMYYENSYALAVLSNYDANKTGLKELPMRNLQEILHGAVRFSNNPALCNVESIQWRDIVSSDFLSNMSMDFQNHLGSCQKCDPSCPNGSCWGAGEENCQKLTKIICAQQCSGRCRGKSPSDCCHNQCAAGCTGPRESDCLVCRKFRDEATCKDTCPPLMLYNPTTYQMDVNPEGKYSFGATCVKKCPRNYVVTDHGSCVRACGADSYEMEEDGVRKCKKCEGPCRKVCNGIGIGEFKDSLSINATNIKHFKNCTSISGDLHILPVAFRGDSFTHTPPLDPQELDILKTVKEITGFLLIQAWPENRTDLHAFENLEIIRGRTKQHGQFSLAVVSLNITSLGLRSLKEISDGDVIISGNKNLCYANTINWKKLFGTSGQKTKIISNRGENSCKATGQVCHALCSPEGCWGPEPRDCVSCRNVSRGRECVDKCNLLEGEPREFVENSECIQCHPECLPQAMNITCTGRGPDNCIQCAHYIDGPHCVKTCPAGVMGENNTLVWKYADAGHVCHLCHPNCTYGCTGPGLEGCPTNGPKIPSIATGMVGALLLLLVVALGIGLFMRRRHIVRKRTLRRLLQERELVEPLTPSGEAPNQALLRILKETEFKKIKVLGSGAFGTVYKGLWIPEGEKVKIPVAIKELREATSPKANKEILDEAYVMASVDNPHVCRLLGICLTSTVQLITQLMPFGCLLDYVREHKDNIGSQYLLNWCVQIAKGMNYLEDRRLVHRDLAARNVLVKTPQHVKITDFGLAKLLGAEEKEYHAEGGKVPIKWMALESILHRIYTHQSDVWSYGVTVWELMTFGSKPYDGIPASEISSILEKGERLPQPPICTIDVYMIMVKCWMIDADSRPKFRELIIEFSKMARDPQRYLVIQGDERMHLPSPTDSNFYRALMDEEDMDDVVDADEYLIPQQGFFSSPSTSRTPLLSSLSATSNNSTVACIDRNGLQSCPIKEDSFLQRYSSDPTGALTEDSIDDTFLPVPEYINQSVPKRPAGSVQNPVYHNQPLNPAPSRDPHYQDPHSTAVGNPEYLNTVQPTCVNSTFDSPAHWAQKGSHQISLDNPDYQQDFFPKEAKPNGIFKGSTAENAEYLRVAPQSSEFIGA

IC50 (SK-MEL-28 tumor cells) | IC50 (SK-MEL-3 tumor cells) | IC50 (Colo205 tumor cells) | IC50 (EGFR) | IC50 (A375P F11s tumor cells) | IC50 (BT474 tumor cells) | IC50 (HT-29 tumor cells) | IC50 (ErbB2) | IC50 (HN5 tumor cells) | SMILES
100 to 1000 nM | 100 to 1000 nM | 100 to 1000 nM | < 100 nM | 100 to 1000 nM | < 100 nM | 100 to 1000 nM | < 100 nM | < 100 nM | O=C(Nc1cccc(-c2nc(CO)sc2-c2ccnc(Nc3ccc(OCCN4CCCC4)c(F)c3)n2)c1)c1c(F)cccc1F [Example 126, 2,6-Difluoro-N-{3-[5-{2-[(3-fluoro-4-{[2-(1-pyrrolidinyl)ethyl]oxy}phenyl)amino]-4-pyrimidinyl}-2-(hydroxymethyl)-1,3-thiazol-4-yl]phenyl}benzamide]
100 to 1000 nM | 100 to 1000 nM | 100 to 1000 nM | < 100 nM | 100 to 1000 nM | 100 to 1000 nM | 100 to 1000 nM | < 100 nM | 100 to 1000 nM | CC(C)c1nc(-c2cccc(NC(=O)c3c(F)cccc3F)c2)c(-c2ccnc(Nc3ccc(OCCN4CCCC4)c(Cl)c3)n2)s1 [Example 121, N-{3-[5-{2-[(3-chloro-4-{[2-(1-pyrrolidinyl)-ethyl]oxy}phenyl)amino]-4-pyrimidinyl}-2-(1-methylethyl)-1,3-thiazol-4-yl]phenyl}-2,6-difluorobenzamide]

Second part, the compound before the results:

SMILES | IC50 (SK-MEL-28 tumor cells) | IC50 (SK-MEL-3 tumor cells) | IC50 (Colo205 tumor cells) | IC50 (EGFR) | IC50 (A375P F11s tumor cells) | IC50 (BT474 tumor cells) | IC50 (HT-29 tumor cells) | IC50 (ErbB2) | IC50 (HN5 tumor cells)
Cc1nc(-c2cccc(NC(=O)c3c(F)cccc3F)c2)c(-c2ccnc(Nc3ccc(OC4CCNCC4)c(F)c3)n2)s1 [Example 107, 2,6-DUDuoro-N-{3-[5-(2-{[3-fluoro-4-(4-piperidinyloxy)phenyl]amino}-4-pyrimidinyl)-2-methyl-1,3-thiazol-4-yl]phenyl}benzamide] | 100 to 1000 nM | 100 to 1000 nM | 100 to 1000 nM | < 100 nM | 100 to 1000 nM | < 100 nM | 100 to 1000 nM | < 100 nM | < 100 nM
CN(C)CCOc1ccc(Nc2nccc(-c3sc(N)nc3-c3cccc(C(=O)Nc4c(F)cccc4F)c3)n2)cc1Cl [Example 75, 3-(2-Amino-5-{2-[(3-chloro-4-{[2-(dimethylamino)ethyl]oxy}phenyl)amino]-4-pyrimidinyl}-1,3-thiazol-4-yl)-N-(2,6-difluorophenyl)benzamide] | > 1000 nM | 100 to 1000 nM | 100 to 1000 nM | < 100 nM | 100 to 1000 nM | < 100 nM | 100 to 1000 nM | < 100 nM | 100 to 1000 nM
CN(C)Cc1cccc(Nc2nccc(-c3scnc3-c3cccc(NC(=O)c4c(F)cccc4F)c3)n2)c1 [Example 90, N-(3-{5-[2-({3-[(Dimethylamino)methyl]-phenyl}amino)-4-pyrimidinyl]-1,3-thiazol-4-yl}phenyl)-2,6-difluorobenzamide-formic acid] | > 1000 nM | > 1000 nM | 100 to 1000 nM | < 100 nM | 100 to 1000 nM | < 100 nM | 100 to 1000 nM | < 100 nM | 100 to 1000 nM
CN(C)CCOc1cccc(Nc2nccc(-c3sc(N4CCCCC4)nc3-c3cccc(NC(=O)c4c(F)cccc4F)c3)n2)c1 [Example 74, N-{3-[5-{2-[(3-{[2-(Dimethylamino)ethyl]oxy}phenyl)amino]-4-pyrimidinyl}-2-(1-piperidinyl)-1,3-thiazol-4-yl]phenyl}-2,6-difluorobenzamide] | > 1000 nM | > 1000 nM | 100 to 1000 nM | < 100 nM | 100 to 1000 nM | 100 to 1000 nM | 100 to 1000 nM | < 100 nM | 
CCc1nc(-c2cccc(NC(=O)c3c(F)cccc3F)c2)c(-c2ccnc(Nc3ccc(N4CCOCC4)nc3)n2)s1 [Example 118, N-{3-[2-Ethyl-5-(2-{[6-(4-morpholinyl)-3-pyridinyl]amino}-4-pyrimidinyl)-1,3-thiazol-4-yl]phenyl}-2,6-difluorobenzamide trifluoroacetate] | > 1000 nM | > 1000 nM | > 1000 nM |  | > 1000 nM | 100 to 1000 nM | > 1000 nM |  | 100 to 1000 nM
